Assay results reported in US20260102502A1, “C[…] COMPOSITIONS FOR TARGETED […]” (priority 2022, published 2026).

Assay: water solubility of free drug and dendrimer-drug conjugates

## CCCCCCC(C)(C)c1cc(OC)c([C@@H]2C=C(CO)[C@@H]3C[C@H]2C3(C)C)c(OC)c1 [Hu308]
free, unconjugated drug of GD-Hu308 (Table 4)
  Water Solubility Free drug*: <100 µg/mL
water
  solubility: < 100 µg/mL
